Data as given in US12606533B2, “3-phenylpropylamine derivative” (DAIICHI SANKYO COMPANY, LIMITED, priority 2023, dated 2026).
pIC50: −log10 of the molar value.

Assays:
CYP21A2 = assay: Changes in SF1 target gene expression for NCI-H295R: CYP21A2 mRNA (qPCR); type: cell-based; conditions: Homo sapiens, NCI-H295R cells, 24 hr
Protocol: (§1) NCI-H295R cells were cultured in a 5% CO2 incubator at 37° C. using DMEM/F12 medium (Thermo Fisher Scientific Inc.) containing 2.5% Nu-Serum (registered trademark) Growth Medium Supplement (Corning) and 1% Corning ITS+ Premix Universal Culture Supplement (Corning). The DMSO solution of each compound was serially diluted with DMSO using a D300e Digital Dispenser (TECAN), and the compounds were added to a 96-well plate (FALCON). NCI-H295R cells were seeded at 1×10^4 cells/50 μL/well on the 96-well plate containing the compounds added thereto, and cultured for 24 hr in a 5% CO2 incubator at 37° C. The final DMSO concentration in the medium was adjusted to 0.1% (v/v) in all cases, and the concentration range of the compounds was set to 1000 nM to 0.32 nM with a common ratio […]. After the completion of culture, the medium was discarded, 50 μL/well of chilled D-PBS (Sigma Aldrich) was added to wash the cells, and D-PBS was discarded. After washing, 25 μL/well of Cells-to-CT (registered trademark) Bulk Lysis Reagents (Thermo Fisher Scientific, Inc.) was added to the wells, the mixture was stirred for 5 min with a plate mixer, and 2.5 μL/well of the reaction quenching liquid was added to prepare cell lysate. The cell lysate was dispensed into a 96-well plate (Corning) at 10 μL/well, and 40 μL/well of Cells-to-CT Bulk RT Reagents (Thermo Fisher Scientific, Inc.) was added. A reverse transcription reaction was performed at 37° C. for 50 min using a thermal cycler, and the reverse transcriptase was inactivated by heating at 95° C. for 5 min, and then stored at 10° C. PrimeTime (registered trademark) Gene Expression Master Mix (Integrated DNA Technologies), the target genes CYP11A1, CYP17A1, CYP21A2, or STAR, and the control gene ACTB PrimeTime (registered trademark) qPCR Probe Assays (Integrated DNA Technologies), and Nuclease free water were mixed at a ratio of 20:1:1:10 to prepare a PrimerProbe mix. The prepared PrimerProbe mix was added to a 384-well plate at 8 μL/well, and the cDNA obtained by reverse transcription was added at 2 μL/well. Real-Time PCR was performed under fast cycling conditions (95° C. for 3 min, followed by 40 cycles of 95° C. for 5 seconds and 62° C. for 30 seconds) to measure the fluorescent signal. The obtained data was analyzed using GraphPad Prism9 (GraphPad Software Inc.) to calculate the concentration (IC50 value) that reduces the mRNA expression level by 50%. The IC50 values (unit: nM) for CYP11A1, CYP17A1, CYP21A2, and STAR, of the compounds corresponding to each Example number are shown in Table 94.

CYP17A1 = assay: Changes in SF1 target gene expression for NCI-H295R: CYP17A1 mRNA (qPCR); type: cell-based; conditions: Homo sapiens, NCI-H295R cells, 24 hr
Protocol: as §1

CYP11A1 = assay: Changes in SF1 target gene expression for NCI-H295R: CYP11A1 mRNA (qPCR); type: cell-based; conditions: Homo sapiens, NCI-H295R cells, 24 hr
Protocol: as §1

SF1-LBD = SF1-LBD (Homo sapiens, UniProt Q13285); assay: Inhibitory activity against binding of DAX1 to SF1-LBD (AlphaLISA); conditions: inhibition of binding of DAX1 peptide to His-SF1-LBD, read-out: cell-free SF1 IC50
Protocol: The binding activity of each compound to the SF-1 ligand binding domain (LBD) was evaluated using the binding inhibitory activity of each compound against binding of DAX1 to SF1-LBD as an index. 100 nM His-SF1-LBD, 2 nM Biotin-DAX1 peptide (Biotin-[…]-NH2) and each compound (8-point i1 dilution series with common ratio 2 from final concentration 2 μM) were mixed in assay buffer [25 mM HEPES (pH 7.5), 100 mM NaCl, 0.1% BSA, 0.01% CHAPS, 1 mM DTT] and reacted at room temperature for 30 min. Anti-6×His AlphaLISA Acceptor beads and Streptavidin-coated AlphaScreen Donor beads were mixed to a final concentrations of 5 μg/ml and 10 μg/ml, respectively, and reacted in the dark at room temperature for 60 min. AlphaLISA signals were detected using a multimode plate reader (EnVision Xcite, PerkinElmer). The binding rate of DAX1 peptide to SF1 was calculated from the luminescence amount (C) of the compound-free group and the luminescence amount (T) of the compound-added group, based on the following formula.
The DAX1 peptide binding rate at each concentration was analyzed using GraphPad Prism6 (GraphPad Software Inc.) to calculate the concentration (IC50 value) of each compound that inhibits 50% of the binding of DAX1 to SF1-LBD.

STAR = assay: Changes in SF1 target gene expression for NCI-H295R: STAR mRNA (qPCR); type: cell-based; conditions: Homo sapiens, NCI-H295R cells, 24 hr
Protocol: as §1

SF1-LBD, sequence (Q13285 222-459 limits assumed): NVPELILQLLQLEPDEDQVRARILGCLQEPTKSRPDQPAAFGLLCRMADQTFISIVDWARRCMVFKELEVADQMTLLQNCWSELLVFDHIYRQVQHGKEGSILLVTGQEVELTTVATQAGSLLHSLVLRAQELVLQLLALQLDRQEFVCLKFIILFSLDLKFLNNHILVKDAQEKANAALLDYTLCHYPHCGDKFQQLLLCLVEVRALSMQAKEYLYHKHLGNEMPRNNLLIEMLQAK

SMILES	pIC50 (CYP21A2)	pIC50 (CYP17A1)	pIC50 (CYP11A1)	pIC50 (SF1-LBD)	pIC50 (STAR)
CCO[C@@H](Cc1ccc(Oc2ccc(CN(CC[C@@]3(c4ccc(OC)cc4)CCOC(C)(C)C3)CC(C)(C)C(F)(F)F)cc2)cc1)C(=O)O [Example R3, (2S)-2-Ethoxy-3-[4-(4-{[{2-[(4R)-4-(4-methoxyphenyl)-2,2-dimethyltetrahydro-2H-pyran-4-yl]ethyl}(3,3,3-trifluoro-2,2-dimethylpropyl)amino]methyl}phenoxy)phenyl]propanoic acid]	8.37	7.55	8.48	7.57	8.21
COc1ccc(C2(CCN(Cc3ccc(O[C@H]4CC[C@H](C(=O)O)CC4)cc3)c3ncc(F)cn3)CCOC(C)(C)C2)cc1 (stereo partly drawn) [Example O2, Trans-4-(4-{[(5-fluoropyrimidin-2-yl) {2-[4-(4-methoxyphenyl)-2,2-dimethyltetrahydro-2H-pyran-4-yl]ethyl}amino]methyl}phenoxy)cyclohexanecarboxylic acid]	7.09	6.68	7.46	7.44	7.12
COc1ccc(C2(CCN(Cc3ccc(C(=O)c4ccc(CCC(=O)O)cc4)c(C)c3)C(=O)C(C)(C)C(F)(F)F)CCOC(C)(C)C2)cc1 (centres unmarked) [Example Q4, 3-[4-(4-{[{2-[4-(4-Methoxyphenyl)-2,2-dimethyltetrahydro-2H-pyran-4-yl]ethyl}(3,3,3-trifluoro-2,2-dimethylpropanoyl)amino]methyl}-2-methylbenzoyl)phenyl]propanoic acid]	7.72	6.72	8.07	7.46	7.36
CC1(C)CC(CCN(Cc2ccc(O[C@H]3CC[C@H](C(=O)O)CC3)cc2)C(=O)C(C)(C)C)(c2ccc(Cl)cc2)CCO1 (stereo partly drawn) [Example A6, Trans-4-(4-{[{2-[4-(4-chlorophenyl)-2,2-dimethyltetrahydro-2H-pyran-4-yl]ethyl)(2,2-dimethylpropanoyl)amino]methyl}phenoxy)cyclohexanecarboxylic acid]	6.85	6.55	6.99	7.72	6.80
COc1ccc(C2(CCN(Cc3ccc(Oc4ccc(CC(C)(C)C(=O)O)cc4)cc3)C(=O)C(C)(C)C)CCOC(C)(C)C2)cc1 (centres unmarked) [Example J4, 3-[4-(4-{[(2,2-Dimethylpropanoyl){2-[4-(4-methoxyphenyl)-2,2-dimethyltetrahydro-2H-pyran-4-yl]ethyl}amino]methyl}phenoxy)phenyl]-2,2-dimethylpropanoic acid]	8.09	7.15	8.39	7.41	7.85
CC1(C)CC(CCN(Cc2ccc(O[C@H]3CC[C@H](C(=O)O)CC3)cc2)C(=O)C(C)(C)C)(c2ccc(N3CCCC3)cc2)CCO1 (stereo partly drawn) [Example G3, Trans-4-(4-{[(2,2-dimethylpropanoyl) (2-{2,2-dimethyl-4-[4-(pyrrolidin-1-yl)phenyl]tetrahydro-2H-pyran-4-yl}ethyl)amino]methyl}phenoxy)cyclohexanecarboxylic acid]	7.38	7.14	7.49	7.27	7.46
COc1ccc(C2(CCN(Cc3ccc(O[C@H]4CC[C@H](C(=O)O)CC4)cc3)c3ccccn3)CCOC(C)(C)C2)cc1 (stereo partly drawn) [Example I2, trans-4-(4-{[{2-[4-(4-Methoxyphenyl)-2,2-dimethyltetrahydro-2H-pyran-4-yl]ethyl}(pyridin-2-yl)amino]methyl}phenoxy)cyclohexanecarboxylic acid]	7.28	6.93	7.54	7.33	7.26
COc1ccc(C2(CCN(Cc3ccc(O[C@H]4CC[C@H](CC(=O)O)CC4)c(Cl)c3)C(=O)C(C)(C)C)CCOC(C)(C)C2)cc1 (stereo partly drawn) [Example C8, [Trans-4-(2-chloro-4-{[(2,2-dimethylpropanoyl) {2-[4-(4-methoxyphenyl)-2,2-dimethyltetrahydro-2H-pyran-4-yl]ethyl}amino]methyl}phenoxy)cyclohexyl]acetic acid]	7.89	7.15	8.11	> 7.80	7.59

Results, then the molecule that gave them:

pIC50 (CYP21A2)	pIC50 (CYP17A1)	pIC50 (CYP11A1)	pIC50 (SF1-LBD)	pIC50 (STAR)	SMILES
7.55	6.85	7.92	7.54	7.33	COc1ccc(C2(CCN(CCC(F)(F)F)Cc3ccc(O[C@H]4CC[C@H](CC(=O)O)CC4)cc3)CCOC(C)(C)C2)cc1 (stereo partly drawn) [Example K5, [Trans-4-(4-{[{2-[4-(4-methoxyphenyl)-2,2-dimethyltetrahydro-2H-pyran-4-yl]ethyl}(3,3,3-trifluoropropyl)amino]methyl}phenoxy)cyclohexyl]acetic acid]
8.62	7.62	8.92	7.59	8.39	COc1ccc([C@]2(CCN(Cc3ccc(O[C@H]4CC[C@H](CC(=O)O)CC4)cc3)CC(C)(C)C(F)(F)F)CCOC(C)(C)C2)cc1 [Example T2, [Trans-4-(4-{[{2-[(4R)-4-(4-methoxyphenyl)-2,2-dimethyltetrahydro-2H-pyran-4-yl]ethyl}(3,3,3-trifluoro-2,2-dimethylpropyl)amino]methyl}phenoxy)cyclohexyl]acetic acid]
7.77	7.25	8.00	7.70	7.62	CC1(C)CC(CCN(Cc2ccc(O[C@H]3CC[C@H](C(=O)O)CC3)cc2)C(=O)C(C)(C)C)(c2ccc(OC(F)(F)F)cc2)CCO1 (stereo partly drawn) [Example B5, Trans-4-(4-{[(2,2-dimethylpropanoyl) (2-{2,2-dimethyl-4-[4-(trifluoromethoxy)phenyl]tetrahydro-2H-pyran-4-yl}ethyl)amino]methyl}phenoxy)cyclohexanecarboxylic acid]
7.11	6.84	7.28	7.54	7.12	COc1ccc(C2(CCN(Cc3ccc(O[C@H]4CC[C@H](C(=O)O)CC4)cc3)C(=O)C(C)(C)C)CCOC(C)(C)C2)cc1 (stereo partly drawn) [Example D3, Trans-4-(4-{[(2,2-dimethylpropanoyl){2-[4-(4-methoxyphenyl)-2,2-dimethyltetrahydro-2H-pyran-4-yl]ethyl}amino]methyl}phenoxy)cyclohexanecarboxylic acid]
7.62	6.85	8.00	7.68	7.27	COc1ccc([C@]2(CCN(Cc3ccc(O[C@H]4CC[C@H](CS(C)(=N)=O)CC4)cc3)C(=O)C(C)(C)C(F)F)CCOC(C)(C)C2)cc1 (single isomer, unassigned) [Example U11, 3,3-Difluoro-N-{2-[(4R)-4-(4-methoxyphenyl)-2,2-dimethyltetrahydro-2H-pyran-4-yl]ethyl}-2,2-dimethyl-N-{4-[(trans-4-{[(R) or (S)—S-methylsulfonimidoyl]methyl}cyclohexyl)oxy]benzyl}propanamide]
